Reference: US11207285B2, “Diabetes treatment regimens using alpha, alpha-substituted long-chain amphipathic carboxylates” (SYNDROMEX LTD., priority 2016, dated 2021)

What was measured:
animal models = assay: plasma lipid lowering in animal models; assay type: in vivo
[1] = system: animal models for T2D (e.g., db/db rats, rodents maintained on high-fat diet); assay: insulin sensitization, glucose lowering and energy expenditure in animal models for T2D; assay type: in vivo
[2] = system: animal models for T2D (e.g., rodents maintained on high-fat diet); assay: as above; assay type: in vivo
half-life in rats = details: rat, in vivo, read-out: half-life (T1/2) (converted)
Description: (§1) The half-life (T1/2) of Medica compounds in humans differs considerably from their half-life in model animals. […] This difference in half-life could not be expected, and is of considerable significance when designing a new treatment protocol for humans.

[3] = system: genes that control liver gluconeogenesis and lipid synthesis; assay: expression of glucose- and lipid-related genes in in vitro models; assay type: cell-based
Description: The compound 2,2,15,15-tetramethylhexadecane-1,16-dioic acid (also designated M16αα), and also the compounds […] (M18αα) and 2,2,19,19-tetramethyl-[…]-1,20-dioic acid (M20αα), were tested for their effect on glucose uptake and production, and the expression of glucose- and lipid-related genes in in vitro models. […] Inhibition of glucose production was tested in HepG2 human liver cells.

half-life in humans = assay type: in vivo
Description: as §1

[4] = target: T1, Hepatocyte nuclear factor 4-alpha (HNF4α) (Homo sapiens, UniProt P41235); assay: transcriptional activity of HNF4α
T1 sequence (P41235 1-474): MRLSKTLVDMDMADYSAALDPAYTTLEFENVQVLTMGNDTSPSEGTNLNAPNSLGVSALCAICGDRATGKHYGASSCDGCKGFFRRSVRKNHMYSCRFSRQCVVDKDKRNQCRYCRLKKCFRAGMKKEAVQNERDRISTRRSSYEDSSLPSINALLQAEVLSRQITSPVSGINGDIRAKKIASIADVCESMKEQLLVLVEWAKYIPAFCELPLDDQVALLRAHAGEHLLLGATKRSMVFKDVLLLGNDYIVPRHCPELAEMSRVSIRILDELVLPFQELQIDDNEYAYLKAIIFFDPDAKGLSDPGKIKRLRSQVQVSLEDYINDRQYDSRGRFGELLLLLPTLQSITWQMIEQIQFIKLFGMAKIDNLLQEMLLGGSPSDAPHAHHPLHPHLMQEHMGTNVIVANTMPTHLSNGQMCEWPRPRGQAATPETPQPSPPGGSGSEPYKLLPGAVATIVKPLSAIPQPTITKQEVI

half-life in dogs = details: dog, in vivo, read-out: half-life (T1/2) (converted)
Description: as §1

half-life (half-life in rats): 2.4 ± 0.6 h
half-life (T1/2) (half-life in humans): 30 to 80 h
half-life (half-life in humans; human, in vivo, as stated in PK evaluation, read-out: half-life): 30 to 80 h
transcriptional activity of HNF4α [4]: suppressing
half-life (half-life in dogs): 65 h
Structure (SMILES): CC(C)(CCCCCCCCCCCCC(C)(C)C(=O)O)C(=O)O [M16αα, 2,2,15,15-tetramethyl-hexadecane-1,16-dioic acid]
plasma LDL-cholesterol (animal models): statin-like efficacy in lowering plasma LDL-cholesterol
plasma triglycerides (animal models): robust decrease of plasma triglycerides
insulin-sensitizing and glucose-lowering efficacy [1]: potent insulin-sensitizing and glucose-lowering efficacy
energy expenditure [2]: increased energy expenditure
expression of genes that control liver gluconeogenesis and lipid synthesis [3]: effective in inhibiting
